SMILES strings stand for the structures.

The first test has as its target T1, IKK-β (Homo sapiens, UniProt O14920).
T1 construct: purchased Promega
T1 sequence (O14920 1-756): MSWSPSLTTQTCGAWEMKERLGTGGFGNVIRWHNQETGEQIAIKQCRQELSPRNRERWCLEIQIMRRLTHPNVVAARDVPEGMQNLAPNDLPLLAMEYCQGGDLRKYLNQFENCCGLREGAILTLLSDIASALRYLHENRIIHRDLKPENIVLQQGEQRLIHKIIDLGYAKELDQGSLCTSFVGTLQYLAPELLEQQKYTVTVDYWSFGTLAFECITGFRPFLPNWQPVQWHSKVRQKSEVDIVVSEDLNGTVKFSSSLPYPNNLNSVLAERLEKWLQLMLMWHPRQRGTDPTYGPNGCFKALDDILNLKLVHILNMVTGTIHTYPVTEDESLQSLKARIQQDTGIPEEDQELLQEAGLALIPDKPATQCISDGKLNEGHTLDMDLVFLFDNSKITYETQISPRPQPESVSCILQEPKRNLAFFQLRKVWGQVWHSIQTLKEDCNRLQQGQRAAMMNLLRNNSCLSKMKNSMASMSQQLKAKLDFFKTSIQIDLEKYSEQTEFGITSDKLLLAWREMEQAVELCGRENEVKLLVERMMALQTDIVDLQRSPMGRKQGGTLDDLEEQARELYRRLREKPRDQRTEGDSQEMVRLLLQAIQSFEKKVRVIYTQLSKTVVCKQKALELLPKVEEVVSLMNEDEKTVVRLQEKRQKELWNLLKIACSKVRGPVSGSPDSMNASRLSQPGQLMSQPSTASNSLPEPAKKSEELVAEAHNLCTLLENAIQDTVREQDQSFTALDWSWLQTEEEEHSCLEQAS
Nature of the test: ADP-Glo kinase assay, IKK-β inhibition. Type of test: biochemical. Conditions: 10 µM; mean ± SD; read-out: % inh. at 10 µM IKK-β. From the text: We evaluated the inhibitory activity of the final compounds against GSK-3β, IKK-β, and ROCK-1 kinases using the commercially available ADP-Glo™ kinase assay. The method was based on the measurement of luminescence that correlates with kinase activity. […] The latter are inhibitors of the kinases of interest and were integral to the design of our studies.
Promega’s Kinase Enzyme Systems (Promega; Madison, WI, USA) were used to determine the activities of the tested compounds against the human recombinant kinases GSK-3β, IKK- β, and ROCK-1. The assays were performed according to the provided manufacturer’s instruction, based on the optimized conditions of the enzymatic reactions, using the low-volume, white polystyrene, 384-well plates. The ADP-Glo™ Assay (Promega; Madison, WI, USA) was used for bioluminescent detection of the kinase activity. Stock solutions of the tested compounds in DMSO (1mM) were diluted with the Kinase Assay Buffer before use (40 mM Tris, pH 7.5, enriched with 50 µM dithiothreitol; DTT), giving the final desired concentrations. The kinase enzymes, substrates, and ATP solutions were also diluted with the assay buffer prior to use. The GSK-3β, IKK-β, and ROCK-1 substrates were derived from human muscle glycogen synthase 1, human IkBA, and human 40S ribosomal protein S6, respectively. The assay procedure was as follows: At first, the appropriate kinase enzyme (GSK-3β: 10 ng per well; IKK-β: 45 ng per well; ROCK-1: 24 ng per well) was incubated with the tested sample (10 µM in well) for 5 min. The DMSO solution (1% in well) was used in the blank samples instead of the tested inhibitors. After the incubation period, ATP (25 µM per well in the case of GSK-3β and IKK-β kinases; 5 µM per well in the case of ROCK-1 kinase) and an appropriate enzyme substrate (0.2 µg/µL in well) were added to start the enzymatic reaction. The reaction mixture was kept at room temperature for 1 h; then, the ADP-Glo™ reagent was added, to terminate the kinase reaction and deplete any remaining ATP. After 40 min, a second reagent (Kinase Detection Reagent) was applied to convert the obtained ADP to ATP and to generate light from the newly synthesized ATP using a luciferase/luciferin reaction. The mixture was incubated for another 30 min at room temperature before the luminescence was measured. The calculations of the percent of kinases’ inhibition by tested compounds were based on the equation 100 − (S/B) × 100; S and B are the enzyme activities with and without the tested sample, respectively. […] Each compound was evaluated in two independent experiments, with every data point collected in duplicate.
In the case of `NC(=O)Nc1cc(-c2ccnc(NC(=O)C3CC3)c2)sc1C(N)=O` [Compound 49, 5-(2-(Cyclopropanecarboxamido)pyridin-4-yl)-3-ureidothiophene-2-carboxamide], the inhibition at 10 µM came out at 16%. As to `O=C1NC2(CCOC2)Nc2cc(-c3ccnc(NC(=O)C4CC4)c3)sc21` (stereo not shown) [Compound 62, N-(4-(4′-Oxo-3′,4,4′,5-tetrahydro-1′H,2H-spiro[furan-3,2′-thieno [3,2-d]pyrimidin]-6′-yl)pyridin-2-yl)cyclopropanecarboxamide], the inhibition at 10 µM amounted to 39%. On the same count and under the same terms, next, `NC(=O)Nc1cc(-c2ccnc(NC(=O)C3CCC3)c2)sc1C(N)=O` [Compound 50, 5-(2-(Cyclobutanecarboxamido)pyridin-4-yl)-3-ureidothiophene-2-carboxamide]: under 10%; `COc1nc(-c2ccnc(NC(=O)C3CC3)c2)sc1C(N)=O` [II, reference compound]: 22%.

As for `CC(C)C(=O)Nc1cc(-c2cc3c(s2)C(=O)NC(C)(C)N3)ccn1` [Compound 39, N-(4-(2,2-Dimethyl-4-oxo-1,2,3,4-tetrahydrothieno [3,2-d]pyrimidin-6-yl)pyridin-2-yl)isobutyramide], the inhibition at 10 µM worked out at 33%.

For `CC1(C)NC(=O)c2sc(-c3ccnc(NC(=O)C4CCC4)c3)cc2N1` [Compound 41, N-(4-(2,2-Dimethyl-4-oxo-1,2,3,4-tetrahydrothieno [3,2-d]pyrimidin-6-yl)pyridin-2-yl)-cyclobutanecarboxamide], the inhibition at 10 µM turned out to be 32%.

`CC(C)C(=O)Nc1cc(-c2cc(NC(N)=O)c(C(N)=O)s2)ccn1` [Compound 48, 5-(2-Isobutyramidopyridin-4-yl)-3-ureidothiophene-2-carboxamide]: the inhibition at 10 µM is under 10%.

The same test, now with this note: mean ± SEM; ATP 25 µM.
On to `O=C1NC2(CCCC2)Nc2cc(-c3ccnc(NC(=O)C4CC4)c3)sc21` [Compound 60, N-(4-(4’-Oxo-3’,4’-dihydro-1’H-spiro[cyclopentane-1,2’-thieno [3,2-d]pyrimidin]-6’-yl)pyridin-2-yl)cyclopropanecarboxamide], for which the IC50 – broadly, the point on the concentration scale where inhibition reaches its midpoint – was 7.35 µM. In turn, `CC1(C)NC(=O)c2sc(-c3ccnc(NC(=O)C4CC4)c3)cc2N1` [Compound 40, N-(4-(2,2-Dimethyl-4-oxo-1,2,3,4-tetrahydrothieno [3,2-d]pyrimidin-6-yl)pyridin-2-yl)-cyclopropanecarboxamide] yielded an IC50 of 4.38 ± 0.544 µM. Turning to `NC(=O)Nc1cc(-c2cccc(NC(=O)C3CC3)c2)sc1C(N)=O` [Compound 58, 5-(3-(Cyclopropanecarboxamido)phenyl)-3-ureidothiophene-2-carboxamide], it took 0.422 ± 0.012 µM to reach half-maximal inhibition (IC50).

Values taken from article PMC11173485, “Connecting GSK-3β Inhibitory Activity with IKK-β or ROCK-1 Inhibition to Target Tau Aggregation and Neuroinflammation in Alzheimer’s Disease—Discovery, In Vitro and In Cellulo Activity of Thiazole-Based Inhibitors” (Molecules, 2024).
